Experimental data from ChEMBL document CHEMBL1687752, “Impact of antifungal prophylaxis on colonization and azole susceptibility of Candida species” (2009).
Values after ≈ are worked out from the molar mass of the structure shown.

System: Nakaseomyces glabratus
Assay: Antifungal activity against 88 days cultured Candida glabrata isolated from HSCT recipient with acute or chronic GVHD mouth receiving antifungal therapy for 75 days after 33 days of prophylaxis by broth microdilution method
Assay type: functional

Structure (SMILES) | MIC
CC[C@@H]([C@H](C)O)n1ncn(-c2ccc(N3CCN(c4ccc(OC[C@@H]5CO[C@@](Cn6cncn6)(c6ccc(F)cc6F)C5)cc4)CC3)cc2)c1=O [POSACONAZOLE] | 2 µg/mL (≈ 2.85 µM)

System: Candida tropicalis
Assay: Antifungal activity against -3 days cultured Candida tropicalis isolated from neutropenic subject with AML or MDS stool receiving antifungal therapy for 45 days after 24 days of prophylaxis by broth microdilution method
Assay type: functional

Structure (SMILES) | MIC
CC[C@@H]([C@H](C)O)n1ncn(-c2ccc(N3CCN(c4ccc(OC[C@@H]5CO[C@@](Cn6cncn6)(c6ccc(F)cc6F)C5)cc4)CC3)cc2)c1=O [POSACONAZOLE] | < 0.015 µg/mL

System: Candida albicans
Assay: Antifungal activity against Candida albicans isolated from neutropenic subjects with AML or MDS receiving fluconazole assessed as maximum MIC by broth microdilution method
Assay type: functional

Structure (SMILES) | MIC
CC[C@@H]([C@H](C)O)n1ncn(-c2ccc(N3CCN(c4ccc(OC[C@@H]5CO[C@@](Cn6cncn6)(c6ccc(F)cc6F)C5)cc4)CC3)cc2)c1=O [POSACONAZOLE] | 8 µg/mL

System: Nakaseomyces glabratus
Assay: Antifungal activity against Candida glabrata isolated from HSCT recipients with acute or chronic GVHD prior to initiation of fluconazole therapy by broth microdilution method
Assay type: functional

Structure (SMILES) | MIC50 | MIC90
CC[C@@H]([C@H](C)O)n1ncn(-c2ccc(N3CCN(c4ccc(OC[C@@H]5CO[C@@](Cn6cncn6)(c6ccc(F)cc6F)C5)cc4)CC3)cc2)c1=O [POSACONAZOLE] | 1 µg/mL (≈ 1.43 µM) | 8 µg/mL (≈ 11.4 µM)

System: Pichia kudriavzevii
Assay: Antifungal activity against 19 days cultured Candida krusei isolated from invasive fungal infected subject blood receiving antifungal therapy for 19 days after 6 days of prophylaxis by broth microdilution method
Assay type: functional

Structure (SMILES) | MIC
CC[C@@H]([C@H](C)O)n1ncn(-c2ccc(N3CCN(c4ccc(OC[C@@H]5CO[C@@](Cn6cncn6)(c6ccc(F)cc6F)C5)cc4)CC3)cc2)c1=O [POSACONAZOLE] | 0.06 µg/mL (≈ 0.0856 µM)

System: Nakaseomyces glabratus
Assay: Antifungal activity against 29 days cultured Candida glabrata isolated from neutropenic subject with AML or MDS stool after 48 days of prophylaxis by broth microdilution method
Assay type: functional

Structure (SMILES) | MIC
CC[C@@H]([C@H](C)O)n1ncn(-c2ccc(N3CCN(c4ccc(OC[C@@H]5CO[C@@](Cn6cncn6)(c6ccc(F)cc6F)C5)cc4)CC3)cc2)c1=O [POSACONAZOLE] | 1 µg/mL (≈ 1.43 µM)

System: Nakaseomyces glabratus
Assay: Antifungal activity against 14 days cultured Candida glabrata isolated from HSCT recipient with acute or chronic GVHD mouth after 17 days of prophylaxis by broth microdilution method
Assay type: functional

Structure (SMILES) | MIC
CC[C@@H]([C@H](C)O)n1ncn(-c2ccc(N3CCN(c4ccc(OC[C@@H]5CO[C@@](Cn6cncn6)(c6ccc(F)cc6F)C5)cc4)CC3)cc2)c1=O [POSACONAZOLE] | 8 µg/mL (≈ 11.4 µM)

System: Nakaseomyces glabratus
Assay: Antifungal activity against Candida glabrata isolated from neutropenic subjects with AML or MDS prior to initiation of posaconazole therapy assessed as maximum MIC by broth microdilution method
Assay type: functional

Structure (SMILES) | MIC
CC[C@@H]([C@H](C)O)n1ncn(-c2ccc(N3CCN(c4ccc(OC[C@@H]5CO[C@@](Cn6cncn6)(c6ccc(F)cc6F)C5)cc4)CC3)cc2)c1=O [POSACONAZOLE] | 4 µg/mL

System: Candida albicans
Assay: Antifungal activity against 1 day cultured Candida albicans isolated from HSCT recipient with acute or chronic GVHD mouth after 2 days of prophylaxis by broth microdilution method
Assay type: functional

Structure (SMILES) | MIC
CC[C@@H]([C@H](C)O)n1ncn(-c2ccc(N3CCN(c4ccc(OC[C@@H]5CO[C@@](Cn6cncn6)(c6ccc(F)cc6F)C5)cc4)CC3)cc2)c1=O [POSACONAZOLE] | < 0.03 µg/mL

System: Candida albicans
Assay: Antifungal activity against Candida albicans isolated from HSCT recipients with acute or chronic GVHD prior to initiation of fluconazole therapy by broth microdilution method
Assay type: functional

Structure (SMILES) | MIC50 | MIC90
CC[C@@H]([C@H](C)O)n1ncn(-c2ccc(N3CCN(c4ccc(OC[C@@H]5CO[C@@](Cn6cncn6)(c6ccc(F)cc6F)C5)cc4)CC3)cc2)c1=O [POSACONAZOLE] | 0.016 µg/mL (≈ 0.0228 µM) | 0.03 µg/mL (≈ 0.0428 µM)

System: Candida albicans
Assay: Antifungal activity against Candida albicans isolated from HSCT recipient 262 with acute or chronic GVHD mouth receiving antifungal drug after 115 days prophylaxis by broth microdilution method
Assay type: functional

Structure (SMILES) | MIC
CC[C@@H]([C@H](C)O)n1ncn(-c2ccc(N3CCN(c4ccc(OC[C@@H]5CO[C@@](Cn6cncn6)(c6ccc(F)cc6F)C5)cc4)CC3)cc2)c1=O [POSACONAZOLE] | < 0.015 µg/mL

System: Pichia kudriavzevii
Assay: Antifungal activity against 13 days cultured Candida krusei isolated from invasive fungal infected subject blood after 12 days of prophylaxis by broth microdilution method
Assay type: functional

Structure (SMILES) | MIC
CC[C@@H]([C@H](C)O)n1ncn(-c2ccc(N3CCN(c4ccc(OC[C@@H]5CO[C@@](Cn6cncn6)(c6ccc(F)cc6F)C5)cc4)CC3)cc2)c1=O [POSACONAZOLE] | 0.25 µg/mL (≈ 0.357 µM)

System: Candida albicans
Assay: Antifungal activity against Candida albicans isolated from HSCT recipient 031 with acute or chronic GVHD mouth after 109 days prophylaxis by broth microdilution method
Assay type: functional

Structure (SMILES) | MIC
CC[C@@H]([C@H](C)O)n1ncn(-c2ccc(N3CCN(c4ccc(OC[C@@H]5CO[C@@](Cn6cncn6)(c6ccc(F)cc6F)C5)cc4)CC3)cc2)c1=O [POSACONAZOLE] | < 0.015 µg/mL

System: Nakaseomyces glabratus
Assay: Antifungal activity against Candida glabrata isolated from HSCT recipient 807 with acute or chronic GVHD mouth receiving antifungal drug after 114 days prophylaxis by broth microdilution method
Assay type: functional

Structure (SMILES) | MIC
CC[C@@H]([C@H](C)O)n1ncn(-c2ccc(N3CCN(c4ccc(OC[C@@H]5CO[C@@](Cn6cncn6)(c6ccc(F)cc6F)C5)cc4)CC3)cc2)c1=O [POSACONAZOLE] | > 8 µg/mL

System: Candida albicans
Assay: Antifungal activity against Candida albicans isolated from neutropenic subjects with AML or MDS receiving fluconazole by broth microdilution method
Assay type: functional

Structure (SMILES) | MIC50 | MIC90
CC[C@@H]([C@H](C)O)n1ncn(-c2ccc(N3CCN(c4ccc(OC[C@@H]5CO[C@@](Cn6cncn6)(c6ccc(F)cc6F)C5)cc4)CC3)cc2)c1=O [POSACONAZOLE] | 0.015 µg/mL (≈ 0.0214 µM) | 0.015 µg/mL (≈ 0.0214 µM)

System: Nakaseomyces glabratus
Assay: Antifungal activity against 10 days cultured Candida glabrata isolated from neutropenic subject with AML or MDS stool receiving antifungal therapy for 37 days after 9 days of prophylaxis by broth microdilution method
Assay type: functional

Structure (SMILES) | MIC
CC[C@@H]([C@H](C)O)n1ncn(-c2ccc(N3CCN(c4ccc(OC[C@@H]5CO[C@@](Cn6cncn6)(c6ccc(F)cc6F)C5)cc4)CC3)cc2)c1=O [POSACONAZOLE] | 1 µg/mL (≈ 1.43 µM)

System: Candida albicans
Assay: Antifungal activity against Candida albicans isolated from HSCT recipients with acute or chronic GVHD receiving fluconazole by broth microdilution method
Assay type: functional

Structure (SMILES) | MIC50 | MIC90
CC[C@@H]([C@H](C)O)n1ncn(-c2ccc(N3CCN(c4ccc(OC[C@@H]5CO[C@@](Cn6cncn6)(c6ccc(F)cc6F)C5)cc4)CC3)cc2)c1=O [POSACONAZOLE] | 0.03 µg/mL (≈ 0.0428 µM) | 16 µg/mL (≈ 22.8 µM)

System: Nakaseomyces glabratus
Assay: Antifungal activity against 7 days cultured Candida glabrata isolated from neutropenic subject with AML or MDS stool receiving antifungal therapy for 37 days after 9 days of prophylaxis by broth microdilution method
Assay type: functional

Structure (SMILES) | MIC
CC[C@@H]([C@H](C)O)n1ncn(-c2ccc(N3CCN(c4ccc(OC[C@@H]5CO[C@@](Cn6cncn6)(c6ccc(F)cc6F)C5)cc4)CC3)cc2)c1=O [POSACONAZOLE] | 1 µg/mL (≈ 1.43 µM)

System: Nakaseomyces glabratus
Assay: Antifungal activity against 42 days cultured Candida glabrata isolated from neutropenic subject with AML or MDS stool after 48 days of prophylaxis by broth microdilution method
Assay type: functional

Structure (SMILES) | MIC
CC[C@@H]([C@H](C)O)n1ncn(-c2ccc(N3CCN(c4ccc(OC[C@@H]5CO[C@@](Cn6cncn6)(c6ccc(F)cc6F)C5)cc4)CC3)cc2)c1=O [POSACONAZOLE] | 1 µg/mL (≈ 1.43 µM)

System: Pichia kudriavzevii
Assay: Antifungal activity against 6 days cultured Candida krusei isolated from neutropenic subject with AML or MDS pharynx receiving antifungal therapy for 19 days after 6 days of prophylaxis by broth microdilution method
Assay type: functional

Structure (SMILES) | MIC
CC[C@@H]([C@H](C)O)n1ncn(-c2ccc(N3CCN(c4ccc(OC[C@@H]5CO[C@@](Cn6cncn6)(c6ccc(F)cc6F)C5)cc4)CC3)cc2)c1=O [POSACONAZOLE] | 0.06 µg/mL (≈ 0.0856 µM)

System: Candida albicans
Assay: Antifungal activity against Candida albicans isolated from HSCT recipient 042 with acute or chronic GVHD mouth receiving antifungal drug after 112 days prophylaxis by broth microdilution method
Assay type: functional

Structure (SMILES) | MIC
CC[C@@H]([C@H](C)O)n1ncn(-c2ccc(N3CCN(c4ccc(OC[C@@H]5CO[C@@](Cn6cncn6)(c6ccc(F)cc6F)C5)cc4)CC3)cc2)c1=O [POSACONAZOLE] | < 0.015 µg/mL
